Test results as given in paper PMC3966047, “Analysis of the minimal specificity of caspase-2 and identification of Ac-VDTTD-AFC as a caspase-2-selective peptide substrate” (Bioscience Reports, 2014).
“Also recorded” adds a separate entry of the source. Like-named read-outs stand apart in the source and are kept apart here. The star is where a group is joined. AFC = O=c1cc(C(F)(F)F)c2ccc(N*)cc2o1

Assays:
caspase-3 [1] = biological target: T1, caspase-3 (Homo sapiens, UniProt P42574); experiment: Fluorogenic peptide cleavage by purified caspase-3 (AFC release); assay type: biochemical
T1 construct: made in house; host or cells: E. coli BL21(DE3)pLysS
T1 sequence (P42574 29-175 limits assumed): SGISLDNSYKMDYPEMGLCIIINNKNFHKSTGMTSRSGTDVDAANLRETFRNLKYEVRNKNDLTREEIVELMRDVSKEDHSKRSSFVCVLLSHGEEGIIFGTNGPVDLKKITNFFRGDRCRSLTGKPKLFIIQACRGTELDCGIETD
T1 sequence (P42574 176-277 limits assumed): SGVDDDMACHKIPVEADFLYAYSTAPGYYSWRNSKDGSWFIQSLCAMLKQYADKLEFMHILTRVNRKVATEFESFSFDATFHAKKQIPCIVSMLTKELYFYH
Experimental: (§1) Caspases-2, -3 and -8 were purified using NiNTA resin (Qiagen) from BL21(DE3)pLysS bacteria (Novagen/Merck) transformed with pET23a–caspase-2^Δ1−149 [44], pET23a–caspase-3 [54] or pET15b–caspase-8^Δ1−216 plasmids. Induction conditions were: caspase-2, 0.4 mM IPTG (isopropyl β-D-thiogalactoside), 2 h 37°C; caspase-3, 0.2 mM IPTG, 3 h 30°C; caspase-8, 1 mM IPTG, 4 h 25°C. Caspases were active site-titrated using zVAD-fmk (Merck). ArcticExpress DE3 bacteria (Agilent Technologies) were transformed with the pET23a Bid expression plasmids described above, induced for 48 h at 10°C using 1 mM IPTG, then the His6-tagged Bid proteins were purified using NiNTA resin (Qiagen). Recombinant proteins were quantitated using the Bicinchoninic acid protein assay kit (Sigma). Runx1 proteins were synthesized using the TNT T7 quick coupled transcription/translation system (Promega) with non-radioactive methionine, using intact Runx1–pET23a plasmids as templates. The concentration of Runx1 proteins was determined by quantitative anti-His6 immunoblotting, using purified AcP35–His6 [56] as a standard.
Caspases were pre-activated for 30 min at 37°C in their preferred buffers, then diluted and mixed with fluorogenic peptide substrates. Fluorescence (excitation 410 nm, emission 500 nm) was measured every 10–60 s for up to 1 h using a FluoStar Galaxy (BMG Labtech). The maximal slope of each curve was calculated. A standard curve, using free AFC (Sigma), was used to convert fluorescence emissions into concentration of AFC produced during the cleavage reactions. Prism 5.0 software was used to determine kcat and KM from three to four independent experiments, as previously described. Ac-DEVD-AFC and Ac-VDVAD-AFC were purchased from Enzo Life Sciences. The custom substrates Ac-VDTTD-AFC and Ac-VDVPD-AFC were synthesized by 21st Century Biochemicals. […] The SuperSignal West Dura Substrate (Thermo Scientific) was used to detect signals and quantitation of sub-saturated exposures was performed using a Syngene G:Box and Image Lab 3.0 software (BioRad). […]

[2] = system: auto-activating caspase-3 in HEK-293T cell lysate; experiment: Fluorogenic peptide cleavage by lysates of HEK-293T cells expressing auto-activating caspase-3; assay type: biochemical, human embryonic kidney cells; conditions: for cleavage by lysates of cells expressing caspase-3 (in words): HEK-293T lysate, auto-activating caspase-3, 0.1 mM substrate, rate of fluorescence increase, three independent transfections
Experimental: (§2) Caspases were pre-activated for 30 min at 37°C in their preferred buffers, then diluted and mixed with fluorogenic peptide substrates. Fluorescence (excitation 410 nm, emission 500 nm) was measured every 10–60 s for up to 1 h using a FluoStar Galaxy (BMG Labtech). The maximal slope of each curve was calculated. A standard curve, using free AFC (Sigma), was used to convert fluorescence emissions into concentration of AFC produced during the cleavage reactions. Prism 5.0 software was used to determine kcat and KM from three to four independent experiments, as previously described. Ac-DEVD-AFC and Ac-VDVAD-AFC were purchased from Enzo Life Sciences. The custom substrates Ac-VDTTD-AFC and Ac-VDVPD-AFC were synthesized by 21st Century Biochemicals. 150 nM Bid or 100 nM Runx1 proteins were incubated with specified concentrations of caspases in their preferred buffers for 1 h (Runx1) or 0.5 h (Bid variants) at 37°C, then subjected to SDS–PAGE and immunoblotting with anti-Bid (#AF860 R&D Systems) or anti-His6 antibodies (#A00186 GenScript). Secondary antibodies were anti-mouse-HRP (#A9044, Sigma) or anti-goat-HRP (#6300-05, Southern Biotech). The SuperSignal West Dura Substrate (Thermo Scientific) was used to detect signals and quantitation of sub-saturated exposures was performed using a Syngene G:Box and Image Lab 3.0 software (BioRad). Linear regression was used to determine the caspase concentration, which cleaved half of each protein.
(§3) HEK-293T cells [human embryonic kidney cells expressing the large T-antigen of SV40 (simian virus 40)] were cultured, transfected, harvested and lysed as described except that protease inhibitors were not used. Each lysate was mixed with the appropriate fluorogenic substrate (0.1 mM) in caspase buffer, and fluorescence was monitored as outlined above.

caspase-2 [3] = experiment: Fluorogenic peptide cleavage by purified caspase-2 (AFC release); assay type: biochemical
Experimental: as §1, §2

[4] = system: auto-activating caspase-2 in HEK-293T cell lysate; experiment: Fluorogenic peptide cleavage by lysates of HEK-293T cells expressing auto-activating caspase-2; assay type: biochemical, human embryonic kidney cells
Experimental: as §2, §3

caspase-2 [5] = conditions: cited from earlier work
Text: It seems likely that identification of caspase-2 substrates may provide valuable clues to its biological role. […] Apoptotic signalling by caspase-2 has been proposed to result from its processing of the pro-apoptotic Bcl-2 relative Bid. […] Runx1 plays a critical role in haematopoiesis, and Runx1 translocations or other mutations occur frequently in myeloid leukaemias, and less commonly in other cancer types.

caspase-8 [6] = experiment: Runx1 cleavage by caspase-8 (anti-His6 immunoblot); assay type: biochemical; conditions: 100 nM in vitro-translated Runx1, 1 h, 37°C
Experimental: as §1, with “Runx1 proteins were synthesized using the TNT T7 quick coupled transcription/translation system (Promega) with non-radioactive methionine, using intact Runx1–pET23a plasmids as templates.” left out
(§4) Caspases were pre-activated for 30 min at 37°C in their preferred buffers, then diluted and mixed with fluorogenic peptide substrates. Fluorescence (excitation 410 nm, emission 500 nm) was measured every 10–60 s for up to 1 h using a FluoStar Galaxy (BMG Labtech). The maximal slope of each curve was calculated. A standard curve, using free AFC (Sigma), was used to convert fluorescence emissions into concentration of AFC produced during the cleavage reactions. […]

caspase-3 [7] = biological target: T1, caspase-3; experiment: Runx1 cleavage by caspase-3 (anti-His6 immunoblot); assay type: biochemical; conditions: 100 nM in vitro-translated Runx1, 1 h, 37°C
Experimental: as §1, with “Runx1 proteins were synthesized using the TNT T7 quick coupled transcription/translation system (Promega) with non-radioactive methionine, using intact Runx1–pET23a plasmids as templates.” left out
as §4

caspase-2 [8] = experiment: Runx1 cleavage by caspase-2 (anti-His6 immunoblot); assay type: biochemical; conditions: 100 nM in vitro-translated Runx1, 1 h, 37°C
Experimental: as §1, with “Runx1 proteins were synthesized using the TNT T7 quick coupled transcription/translation system (Promega) with non-radioactive methionine, using intact Runx1–pET23a plasmids as templates.” left out
as §4

caspase-8 [9] = conditions: subsequent data; cited from earlier work
Text: It seems likely that identification of caspase-2 substrates may provide valuable clues to its biological role. […] Apoptotic signalling by caspase-2 has been proposed to result from its processing of the pro-apoptotic Bcl-2 relative Bid.

caspase-8 [10] = experiment: Bid protein cleavage by caspase-8 (anti-Bid immunoblot); assay type: biochemical; conditions: 150 nM Bid protein, 0.5 h, 37°C
Experimental: as §1, with “Runx1 proteins were synthesized using the TNT T7 quick coupled transcription/translation system (Promega) with non-radioactive methionine, using intact Runx1–pET23a plasmids as templates.” left out
as §4

caspase-2 [11] = experiment: Bid protein cleavage by caspase-2 (anti-Bid immunoblot); assay type: biochemical; conditions: 150 nM Bid protein, 0.5 h, 37°C, preferred buffer, from caspase concentration cleaving half of the substrate
Experimental: as §1, with “Runx1 proteins were synthesized using the TNT T7 quick coupled transcription/translation system (Promega) with non-radioactive methionine, using intact Runx1–pET23a plasmids as templates.” left out
as §4

caspase-3 [12] = biological target: T1, caspase-3; experiment: Bid protein cleavage by caspase-3 (anti-Bid immunoblot); assay type: biochemical; conditions: 150 nM Bid protein, 0.5 h, 37°C
Experimental: as §1, with “Runx1 proteins were synthesized using the TNT T7 quick coupled transcription/translation system (Promega) with non-radioactive methionine, using intact Runx1–pET23a plasmids as templates.” left out
as §4

[13] = preferred buffer, anti-Bid immunoblot, from caspase concentration cleaving half of the substrate

For “Ac-VDTTD-{AFC} [custom fluorogenic substrate synthesized by 21st Century Biochemicals]”, the “cleavage by caspase-3 (in words)” value (caspase-3 [1]) was “only cleaved it slightly more efficiently than Ac-VDVAD-AFC”, the “cleavage efficiency relative to Ac-VDVAD-AFC (caspase-3)” value (caspase-3 [1]; fold versus Ac-VDVAD-AFC) was 1.7 times and the “cleavage by lysates of cells expressing caspase-3 (in words)” value [2] was “proteolysed by lysates containing caspase-3, but at a slower rate than by lysates from cells expressing caspase-2”. For the same molecule, the “DEVDase activity relative to VDTTDase activity” value ([2]; cells expressing active caspase-3, Ac-DEVD-AFC versus Ac-VDTTD-AFC, 0.1 mM substrate) was 3.3 times, the “cleavage by caspase-2 (in words)” value (caspase-2 [3]; purified caspase-2) was “efficiently cleaved by purified caspase-2” and the “cleavage efficiency relative to Ac-VDVAD-AFC (caspase-2)” value (caspase-2 [3]; purified caspase-2, fold versus Ac-VDVAD-AFC) was “four”. For the same molecule, the “selectivity for caspase-2 relative to caspase-3 (in words)” value (caspase-2 [3]; purified caspases-2 and -3) was “better selectivity for caspase-2 relative to caspase-3 than reagents that are currently available; also recorded: exhibits enhanced caspase-2 sensitivity and specificity, relative to Ac-VDVAD-AFC”, the “cleavage by lysates of cells expressing caspase-2 (in words)” value ([4]; HEK-293T lysate, auto-activating caspase-2, 0.1 mM substrate, rate of fluorescence increase, three independent transfections) was “efficiently cleaved by purified caspase-2 and auto-activating caspase-2 in mammalian cells; also recorded: lysates from cells expressing active caspase-2 cleaved Ac-VDTTD-AFC more efficiently than the other peptides” and the “caspase-2 versus caspase-3 selectivity in cell lysates (in words)” value ([4]; HEK-293T lysates with auto-activating caspase-2 or -3, 0.1 mM substrate) was “significantly more selective for caspase-2 than the commonly used Ac-VDVAD-AFC peptide; also recorded: does not offer this degree of specificity”. For the same molecule, the “VDTTDase activity relative to DEVDase activity” value ([4]; lysates from cells expressing caspase-2, background activity in vector transfectant lysates subtracted, 0.1 mM substrate) was about 14 times.

In the case of Ac-DEVD-AFC [reference compound], the “cleavage by lysates of cells expressing caspase-3 (in words)” value [2] is reported as “extracts from cells expressing active caspase-3 cleaved Ac-DEVD-AFC most efficiently”.

In the case of “EIF4B: translation initiation factor EIF4B”, the “cleavage by caspase-2 versus other caspases (in words)” value (caspase-2 [5]; degradomics, lysates) is given as “more efficiently cleaved by caspase-2”.

In the case of Cux1: transcription factor Cux1, the “cleavage by caspase-2 (in words)” value (caspase-2 [5]) is listed as “efficiently cleaved”.

With Runx1^DVPG: P1 mutant of Runx1 the “Runx1 cleavage by caspase-8 (in words)” value (caspase-8 [6]) was “yielded a larger product”, the “Runx1 cleavage by caspase-3 (in words)” value (caspase-3 [7]) was “yielded a larger product” and the “Runx1 cleavage by caspase-2 (in words)” value (caspase-2 [8]) was “yielded a larger product”.

B1: wild-type Bid: Bid protein bearing the native LQTD cleavage site (protein, UniProt P55957 1-195, looked up)
BH3-interacting domain death …: MDCEVNNGSSLRDECITNLLVFGFLQSCSDNSFRRELDALGHELPVLAPQWEGYDELQTDGNRSSHSRLGRIEADSESQEDIIRNIARHLAQVGDSMDRSIPPGLVNGLALQLRNTSRSEEDRNRDLATALEQLLQAYPRDMEKEKTMLVLALLLAKKVASHTPSLLRDVFHTTVNFINQNLRTYVRSLARNGMD
In the case of B1, the “Bid cleavage by caspases-2 and -8 (in words)” value (caspase-2 [5]; initial results) is given as “could cleave Bid with similar efficiency”, the “Bid cleavage by caspase-8 compared with caspase-2 (in words)” value (caspase-8 [9]) is given as “the processing by caspase-8 was more efficient” and the “processing efficiency by caspase-8 relative to caspase-2” value (caspase-8 [10]) is given as “about seven”. The “second-order rate constant (estimate of kcat/KM), caspase-8” value (caspase-8 [10]; [13]) was 22000 M⁻¹ s⁻¹, the “second-order rate constant (estimate of kcat/KM), caspase-2” value (caspase-2 [11]) was 3200 M⁻¹ s⁻¹ and the “Bid cleavage by caspase-3 (in words)” value (caspase-3 [12]; immunoblot) was “barely sensitive to proteolysis by even high concentrations of caspase-3”. The “second-order rate constant (estimate of kcat/KM), caspase-3” value (caspase-3 [12]; [13]) was 160 M⁻¹ s⁻¹.
